For 7 molecules, ΔTm and Ka results are on record in article PMC11679705 (2024).

Assay [1] relates to F-SA5-T (DNA, G4) GGAAGGAGGGGTGACAGGG
The assay is described as follows: FRET melting. The settings on record: 10 mM K+, 90 mM Li+; 10 mM lithium cacodylate, pH 7.2; 5 µM compound, 0.2 µM DNA.

The test system of assay [2] is EBR1 (DNA, G4) GGGCAGGGGGTGATGGGGAGGAGCCAGGG
Nature of the assay: UV/Vis titration. On the set-up: unit not given here. As to conditions: 100 mM K+, 10 mM lithium cacodylate, pH 7.2, independent-and-equivalent-sites model.

The test system of assay [3] is ds26 (DNA, duplex) CAATCGGATCGAATTCGATCCGATTG
Nature of the assay: UV/Vis titration. The settings on record: 100 mM K+, 10 mM lithium cacodylate, pH 7.2, independent-and-equivalent-sites model.

In assay [4] the test system is F-SA3-T (DNA, G4) GGGGCTAATTGGGGCTGGTGG
The assay is described as follows: FRET melting. The settings on record: 10 mM K+, 90 mM Li+; 10 mM lithium cacodylate, pH 7.2; 5 µM compound, 0.2 µM DNA.

For assay [5], the system named is mit9438 (DNA, G4) GGCGTAGGTTTGGTCTAGGG
The assay is described as follows: UV/Vis titration. On the set-up: unit not given here. As to conditions: 100 mM K+, 10 mM lithium cacodylate, pH 7.2, independent-and-equivalent-sites model.

Assay [6] has as its system SA5 (DNA, G4) GGAAGGAGGGGTGACAGGG
Nature of the assay: UV/Vis titration. Also on record: unit not given here. The settings on record: 100 mM K+, 10 mM lithium cacodylate, pH 7.2, independent-and-equivalent-sites model.

In assay [7] the test system is F-ds26-T (DNA, duplex) CAATCGGATCGAATTCGATCCGATTG
The assay is described as follows: FRET melting. The settings on record: 10 mM K+, 90 mM Li+; 10 mM lithium cacodylate, pH 7.2; 5 µM compound, 0.2 µM DNA.

Assay [8] deals with F-mit9438-T (DNA, G4) GGCGTAGGTTTGGTCTAGGG
Nature of the assay: FRET melting. The settings on record: 10 mM K+, 90 mM Li+; 10 mM lithium cacodylate, pH 7.2; 5 µM compound, 0.2 µM DNA.

Assay [9] concerns F-mit6363-T (DNA, G4) AGGGACGCGGGCGGGGGATATAGGGT
Nature of the assay: FRET melting. The settings on record: 10 mM K+, 90 mM Li+; 10 mM lithium cacodylate, pH 7.2; 5 µM compound, 0.2 µM DNA.

In assay [10] the test system is F-21-T (DNA, G4) GGGTTAGGGTTAGGGTTAGGG
The assay is described as follows: FRET melting. The settings on record: 10 mM K+, 90 mM Li+; 10 mM lithium cacodylate, pH 7.2; 5 µM compound, 0.2 µM DNA.

Assay [11] concerns F-EBR1-T (DNA, G4) GGGCAGGGGGTGATGGGGAGGAGCCAGGG
The assay is described as follows: FRET melting. The settings on record: 10 mM K+, 90 mM Li+; 10 mM lithium cacodylate, pH 7.2; 5 µM compound, 0.2 µM DNA.

In the case of `CCCNc1cc2c3c(ccc4c3c1C(=O)N(CCCN(C)C)C4=O)C(=O)N(CCCN(C)C)C2=O`, the thermal shift (ΔTm) in [1] came out at 4.7 ± 1.0 °C.
On to `C[N+](C)(C)c1ccc(/C=C/c2cc(/C=C/c3ccc([N+](C)(C)C)cc3)c(/C=C/c3ccc([N+](C)(C)C)cc3)cc2/C=C/c2ccc([N+](C)(C)C)cc2)cc1`, for which the Ka in assay [2] (7 µM ligand) was found to be 0.801; in assay [3] (7 µM ligand), 0.562 µM⁻¹; in assay [5] (7 µM ligand) it was 1.420; in assay [6] (7 µM ligand), 1.065. Further, the ΔTm is 9.7 ± 0.6 °C in assay [4] and -4.7 ± 0.6 °C in assay [7].
With `C[N+](C)(C)c1ccc(/C=C/c2cc(/C=C/c3ccc([N+](C)(C)C)cc3)cc(/C=C/c3ccc([N+](C)(C)C)cc3)c2)cc1`, the Ka in [2] (4 µM ligand) was determined as 0.672; in assay [3] (4 µM ligand) it was 0.083 µM⁻¹; in [5] (4 µM ligand), 0.821; in [6] (4 µM ligand) it was 0.651. Moreover, the ΔTm in assay [4] stood at 31.3 ± 0.6 °C.
For `C[n+]1ccc(-c2c3nc(c(-c4cc[n+](C)cc4)c4ccc([nH]4)c(-c4cc[n+](C)cc4)c4nc(c(-c5cc[n+](C)cc5)c5ccc2[nH]5)C=C4)C=C3)cc1`, the ΔTm was 29.0 ± 2.1 °C in assay [1] and 31.0 ± 0.0 °C in [8].
Take `C[n+]1ccc(/C=C/c2cc(/C=C/c3cc[n+](C)cc3)c(/C=C/c3cc[n+](C)cc3)cc2/C=C/c2cc[n+](C)cc2)cc1`: the ΔTm in assay [9] was found to be 33.0 ± 0.0 °C; in assay [10], 34.7 ± 0.0 °C; in assay [11], 35.3 ± 0.6 °C; in assay [7] it was 9.0 ± 1.0 °C. The Ka in assay [2] (7 µM ligand) stood at 0.367; in [3] (7 µM ligand) it was 0.267 µM⁻¹; in assay [5] (7 µM ligand), 1.548; in assay [6] (7 µM ligand), 0.513.
Consider `C[n+]1ccc(/C=C/c2cc(/C=C/c3cc[n+](C)cc3)cc(/C=C/c3cc[n+](C)cc3)c2)cc1`, for which the Ka in assay [2] (7 µM ligand) worked out at 0.528; in assay [3] (7 µM ligand), 0.165 µM⁻¹; in assay [5] (7 µM ligand) it was 1.167; in assay [6] (7 µM ligand), 1.411.
As for `NCCOc1cc(C(=O)Nc2cc(OCCN)c3ccccc3n2)nc(C(=O)Nc2cc(OCCN)c3ccccc3n2)c1`, the ΔTm worked out at 24.0 ± 1.1 °C in [10] and 0.7 ± 0.6 °C in [7].
